Data on 18 molecules can be found in patent US11976083B2, “Inhibitors of peptidylarginine deiminases” (Gilead Sciences, Inc., priority 2020, dated 2024).

One may read the IC50 as the midpoint of a concentration-inhibition curve.

The assay concerns the target T1, human PAD4 (Homo sapiens, UniProt Q9UM07).
T1 construct: human PAD4 (NM_012387), A2-P663, was PCR amplified; His-SUMO (N, cleaved yes); made in house; host or cells: E. coli BL21(DE3)
Put plainly: In vitro PAD4 BAEE biochemical assay. The settings on record: BAEE substrate 3 mM, 5 nM PAD4, 2 mM calcium chloride; geometric mean of multiple experiments. The method, boiled down:
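Recombinant human PAD4 (5 nM final) with 2 mM CaCl2 was preincubated with compound 30 min at 25 °C in MOPS buffer pH 7.6, then reacted with 3 mM BAEE for 2 h at 25 °C. After EDTA stop, released ammonia was detected by o-phthalaldehyde/DTT fluorescence (ex 405/em 535 nm); IC50 from four-parameter fit, geometric mean.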

T1 sequence (Q9UM07 2-663): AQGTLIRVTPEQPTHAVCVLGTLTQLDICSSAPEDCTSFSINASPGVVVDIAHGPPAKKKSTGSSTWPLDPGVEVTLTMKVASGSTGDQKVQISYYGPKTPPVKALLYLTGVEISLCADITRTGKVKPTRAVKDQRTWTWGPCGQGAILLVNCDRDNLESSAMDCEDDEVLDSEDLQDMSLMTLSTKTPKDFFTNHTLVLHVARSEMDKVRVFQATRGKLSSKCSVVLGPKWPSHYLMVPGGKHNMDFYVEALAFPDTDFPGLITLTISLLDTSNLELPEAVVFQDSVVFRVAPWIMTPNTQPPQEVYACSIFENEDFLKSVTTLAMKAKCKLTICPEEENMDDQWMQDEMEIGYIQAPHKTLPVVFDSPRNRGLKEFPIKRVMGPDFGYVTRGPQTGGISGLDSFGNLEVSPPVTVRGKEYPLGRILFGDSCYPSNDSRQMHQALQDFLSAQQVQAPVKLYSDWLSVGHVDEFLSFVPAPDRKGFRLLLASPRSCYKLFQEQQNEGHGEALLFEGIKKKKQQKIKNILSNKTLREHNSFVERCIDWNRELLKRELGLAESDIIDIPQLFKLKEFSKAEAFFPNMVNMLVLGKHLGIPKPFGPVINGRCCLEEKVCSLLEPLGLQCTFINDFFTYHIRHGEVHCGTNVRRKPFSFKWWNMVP

Turning to `C[C@H]1NC(=O)c2ccc(Cl)nc2CCCCCn2c(-c3nc4cc(C(=O)N5CC[C@H]6CC[C@@H]5[C@@H]6N)cc(F)c4n3C3CC3)cc3ccc1nc32` [Example 774, (2~{R})-17-[5-[(1~{R},5~{R}, 8~{R})-8-amino-2-azabicyclo [3.2.1]octane-2-carbonyl]-1-cyclopropyl-7-fluoro-benzimidazol-2-yl]-8-chloro-2-methyl-3,9,16,22-tetrazatetracyclo[14.5.2.0^ {5,10).0^{19,23}]tricosa-1(22),5(10),6,8,17,19(23),20-heptaen-4-one], the IC50 worked out at 33 nM.

In the case of `COC[C@@]12C[C@@H]1CCCCCn1c(-c3nc4cc(C(=O)N5CC[C@@H](OC)[C@@H](N)C5)cc(OC)c4n3C)cc3ccc(nc31)[C@@H](C)NC2=O` [Example 865, (2~{R},5~{R},7~{S})-14-[5-[(3~{S},4~{R})-3-amino-4-methoxy-piperidine-1-carbonyl]-7-methoxy-1-methyl-benzimidazol-2-yl]-5-(methoxymethyl)-2-methyl-3,13,19-triazatetracyclo[11.5.2.0^ {5,7}.0^{16,20}]icosa-1(19), 14,16(20),17-tetraen-4-one], the IC50 was 230 nM.

`C[C@H]1NC(=O)c2nccnc2CCCCCn2c(-c3nc4cc(C(=O)N[C@H]5CNCC[C@@H]5F)c(F)cc4n3C3CC3)cc3ccc1nc32` [Example 243, 1-cyclopropyl-6-fluoro-~{N}-[(3~{S},4~{S})-4-fluoro-3-piperidyl]-2-[(2~{R})-2-methyl-4-oxo-3,6,9,16,22-pentazatetracyclo[14.5.2.0^{5,10}.0^{19, 23}]tricosa-1(21),5(10),6,8,17,19,22-heptaen-17-yl]benzimidazole-5-carboxamide]: the IC50 was determined as 68 nM.

For `[2H]C1([2H])[C@H](N)[C@@H]2CC[C@@H](C2)N1C(=O)c1cc(OC)c2c(c1)nc(-c1cc3ccc4nc3n1CCCCCc1ccccc1C(=O)N[C@@H]4C)n2C` [Example 770, (2~{R})-17-[5-[(1~{S},4~{R}, 5~{R})-4-amino-3,3-dideuterio-2-azabicyclo[3.2.1]octane-2-carbonyl]-7-methoxy-1-methyl-benzimidazol-2-yl]-2-methyl-3,16,22-triazatetracyclo[14.5.2.0^ {5,10).0^{19,23}]tricosa-1(22),5(10),6,8,17,19(23), 20-heptaen-4-one], the IC50 amounted to 5 nM.

With `COc1cc(C(=O)N2CCC[C@@H](N)C2)cc2nc(-c3cc4ccc5cc4n3CCCCCCNC(=O)c3ccccc3-5)n(C)c12` [Example 51, 17-[5-[(3~{R})-3-aminopiperidine-1-carbonyl]-7-methoxy-1-methyl-benzimidazol-2-yl]-9,16-diazatetracyclo[14.5.2.0^{2,7}.0^{19,23}] tricosa-1(22),2,4,6,17,19(23),20-heptaen-8-one], the IC50 came to 215 nM.

As to `COc1cc(C(=O)N[C@H]2CNCC[C@@H]2F)cc2nc(-c3cc4ccc5nc4n3CCCCC[C@@]3(C)C[C@@H]3C(=O)N[C@@H]5C)n(C)c12` [Example 617, 2-[(2~{R},5~{S},7~{S})-2,7-dimethyl-4-oxo-3,13,19-triazatetracyclo[11.5.2.0^ {5,7}.0^{16,20}]icosa-1(19),14,16(20),17-tetraen-14-yl]-~{N}-[(3~ {S},4~{S})-4-fluoro-3-piperidyl]-7-methoxy-1-methyl-benzimidazole-5-carboxamide], the 50% inhibitory concentration (IC50) was 1120 nM.

Take `C[C@H]1NC(=O)[C@@H]2C[C@H]2CCCCCn2c(-c3nc4cc(C(=O)N[C@H]5CNCC[C@@H]5F)c(F)cc4n3[C@H]3C[C@H]3F)cc3ccc1nc32` [Example 826, 6-fluoro-1-[(1~{S},2~{R})-2-fluorocyclopropyl]-~{N}-[(3~{S),4~{S})-4-fluoro-3-piperidyl]-2-[(2~{R},5~{R},7~ {R})-2-methyl-4-oxo-3,13,19-triazatetracyclo [11.5.2.0^{5,7}.0^{16,20}]icosa-1(19),14,16(20),17-tetraen-14-yl]benzimidazole-5-carboxamide]: the IC50 amounted to 31 nM.

For the molecule `COc1cc(C(=O)N2C[C@H](N)[C@@H]3CC[C@H]2C3)cc2nc(-c3cc4ccc5nc4n3CCCCC[C@]3(F)C[C@H]3C(=O)N[C@@H]5C)c(C)n12` [Example 815, (2~{R},5~{S},7~{S})-14-[7-[(1~{S},4~{R},5~{R})-4-amino-2-azabicyclo[3.2.1]octane-2-carbonyl]-5-methoxy-3-methyl-imidazo[1,2-a]pyridin-2-yl]-7-fluoro-2-methyl-3,13,19-triazatetracyclo [11.5.2.0^{5,7}.0^{16,20}] icosa-1(18),14,16,19-tetraen-4-one], the IC50 was found to be 26 nM.

On to `COc1cc(C(=O)N2[C@H]3CC[C@@H]2[C@H](N)C3)cc2nc(-c3cc4ccc5nc4n3CCCCCCCC(=O)NC5(C)C)n(C)c12` [Example 251, 17-[5-[(1~{R},2~{R},4~{S})-2-amino-7-azabicyclo[2.2.1]heptane-7-carbonyl]-7-methoxy-1-methyl-benzimidazol-2-yl]-11,11-dimethyl-1,10,19-triazatricyclo[10.5.2.0^{15,18}]nonadeca-12(19),13,15(18),16-tetraen-9-one], for which the IC50 was determined as 74 nM.

As to `COc1cc(C(=O)N2[C@H]3CC[C@@H]2[C@H](N)C3)cc2nc(-c3cc4ccc5nc4n3CCCCCc3nccnc3C(=O)N[C@@H]5C)n(C)c12` [Example 598, (2~{R})-17-[5-[(1~{R}, 2~{R},4~{S})-2-amino-7-azabicyclo[2.2.1]heptane-7-carbonyl]-7-methoxy-1-methyl-benzimidazol-2-yl]-2-methyl-3,6,9,16,22-pentazatetracyclo[14.5.2.0^ {5,10}.0^{19,23}] tricosa-1(21),5(10),6,8,17, 19,22-heptaen-4-one], the IC50 worked out at 42 nM.

For `C[C@H]1NC(=O)[C@H]2C[C@@H]2CC(F)(F)CCCn2c(-c3nc4cc(C(=O)N[C@H]5CNCC[C@@H]5F)c(F)cc4n3C)cc3ccc1nc32` [Example 624, 2-[(2~{R},5~{S},7~{R})-9,9-difluoro-2-methyl-4-oxo-3,13,19-triazatetracyclo[11.5.2.0^ {5,7).0^{16,20}]icosa-1(19),14,16(20), 17-tetraen-14-yl]-6-fluoro-~{N}-[(3~{S},4~ {S})-4-fluoro-3-piperidyl]-1-methyl-benzimidazole-5-carboxamide], the IC50 amounted to 70 nM.

On to `COc1cc(C(=O)N2[C@H]3CC[C@@H]2[C@H](N)C3)cc2nc(-c3cc4ccc5nc4n3C[C@H]3C[C@H]3CC[C@H]3C[C@@H]3C(=O)N[C@@H]5C)n(C)c12` [Example 143, (3~{S),5~{R},8~{S},10~{S},13~{R})-19-[5-[(1~{R},2~{R},4~{S})-2-amino-7-azabicyclo[2.2.1]heptane-7-carbonyl]-7-methoxy-1-methyl-benzimidazol-2-yl]-13-methyl-1,12,21-triazapentacyclo[12.5.2.0^{3,5}.0^{8,10}.0^ {17,20}]henicosa-14(21),15,17(20),18-tetraen-11-one], for which the IC50 came to 158 nM.

Consider `COc1cc(C(=O)N2[C@H]3CC[C@@H]2[C@H](N)C3)cc2nc(-c3cc4ccc5nc4n3CCCCOCCC(=O)N3CCC[C@H]53)n(C)c12` [Example 132, (2~{R})-16-[5-[(1~{R},2~{R),4~{S})-2-amino-7-azabicyclo[2.2.1]heptane-7-carbonyl]-7-methoxy-1-methyl-benzimidazol-2-yl]-10-oxa-6,15,21-triazatetracyclo[13.5.2.0^{2,6}.0^{18,22}] docosa-1(21),16,18(22),19-tetraen-7-one], for which the IC50 was determined as 28 nM.

Turning to `COc1cc(C(=O)N2[C@H]3CC[C@@H]2[C@H](N)C3)cc2nc(-c3cc4ccc5nc4n3CCCCCCCC(=O)N(C)C5)n(C)c12` [Example 256, 17-[5-[(1~{R},2~{R},4~{S})-2-amino-7-azabicyclo[2.2.1]heptane-7-carbonyl]-7-methoxy-1-methyl-benzimidazol-2-yl]-10-methyl-1,10,19-triazatricyclo[10.5.2.0^{15,18}]nonadeca-12(19),13,15(18),16-tetraen-9-one], the IC50 came to 48 nM.

`COc1cc(C(=O)N[C@@H]2CCCCNC2)cc2nc(-c3cc4ccc5nc4n3CCCCCCC3(CC3)C(=O)N[C@@H]5C)n(C)c12` [Example 77, ~{N}-[(3~{R})-azepan-3-yl]-7-methoxy-1-methyl-2-[(11~{R})-11-methyl-9-oxo-spiro[1,10,19-triazatricyclo[10.5.2.0^{15,18}]nonadeca-12(19),13,15(18),16-tetraene-8,1′-cyclopropane]-17-yl]benzimidazole-5-carboxamide]: the IC50 is 367 nM.

As to `COc1cc(C(=O)N2C[C@H](N)C[C@@H](F)C2)cc2nc(-c3cc4ccc5nc4n3CCCCCCC(C)(C)C(=O)N[C@@H]5C)n(C)c12` [Example 193, (11~{R})-17-[5-[(3~{R},5~{R})-3-amino-5-fluoro-piperidine-1-carbonyl]-7-methoxy-1-methyl-benzimidazol-2-yl]-8,8,11-trimethyl-1,10,19-triazatricyclo[10.5.2.0^{15,18}]nonadeca-12(19),13,15(18),16-tetraen-9-one], the IC50 worked out at 66 nM.

Take `COc1cc(C(=O)N2CC[C@@H]3CCN[C@@H]3C2)cc2nc(-c3cc4ccc5nc4n3CCCCC[C@@H]3C[C@H]3C(=O)N[C@@H]5C)n(C)c12` [Example 532, (2~{R},5~{R},7~{R})-14-[5-[(3~{a}~{S}, 7~{a}~{S})-1,2,3,3~ {a},4,5,7,7~{a}-octahydropyrrolo[2,3-c]pyridine-6-carbonyl]-7-methoxy-1-methyl-benzimidazol-2-yl]-2-methyl-3,13,19-triazatetracyclo[11.5.2.0^ {5,7}.0^{16,20}]icosa-1 (19),14,16(20),17-tetraen-4-one]: the IC50 turned out to be 239 nM.

`C[C@H]1NC(=O)c2cnccc2CCCCCn2c(-c3nc4cc(C(=O)N[C@H]5CNCC[C@@H]5F)c(F)cc4n3C)cc3ccc1nc32` [Example 349, 6-fluoro-~{N}-[(3~{S},4~{S})-4-fluoro-3-piperidyl]-1-methyl-2-[(2~{R})-2-methyl-4-oxo-3,7,16,22-tetrazatetracyclo[14.5.2.0^{5,10}.0^{19,23}]tricosa-1(22),5,7,9,17,19(23),20-heptaen-17-yl]benzimidazole-5-carboxamide]: the IC50 was determined as 34 nM.
